Laboratory results published in patent publication US20210268029A1, “METHODS FOR TREATING CANCER WITH MANUFACTURED T CELLS” (RAPA THERAPEUTICS, LLC, priority 2018, published 2021).

Key:
Format in all cases: cell-based
[1] = test system: human CD4^+ and CD8^+ T cells; assay: Western blot of p62, phospho-RAPTOR and BIM after 16-hr pre-incubation (FIGS. 11-13)
Method: For FIGS. 11-13, human CD4^+ and CD8^+ T cells were cultured using a 16-hr pre-incubation interval prior to the addition of 3/28 beads at the reduced ratio of 1:3 beads-to-T cells. As indicated in FIGS. 11-13, the various T cell cultures received different methods of mTOR inhibition (rapamycin at 1.0 μM; temsirolimus at 1.0 or 0.1 different conditions of exogenous IL-2 addition, and different conditions relative to addition of the anti-IL-2 receptor monoclonal antibody, daclizumab. After the 16-hr pre-incubation interval, cells were harvested from the T cell cultures, protein was isolated, and p62 (FIG. 11), phospho-RAPTOR (FIG. 12), or BIM (FIG. 13) and the housekeeper gene β-actin were quantified by western blot.

T cells = assay: FoxP3 and TBET intra-cellular expression in T cells cultured ex vivo, day 6 (FIGS. 1A-1B)
Method: T cells were cultured ex vivo, as indicated, using various ratios of anti-CD3, anti-CD28 beads to T cells (1:1 or 1:12); the mTOR inhibitor temsirolimus (1 μM); without or with the anti-IL-2 receptor monoclonal antibody daclizumab (5 or 50 μg/ml); and either Th1 polarization cytokines (IFN-alpha; 10,000 IU/ml) or control regulatory T cell polarization (IL-2 plus TGF-β). At day 6 of culture, the T cells were evaluated for intra-cellular expression of the regulatory T cell transcription factor FoxP3 and the Th1 transcription factor TBET. (FIGS. 1A-1B).

CD4^+ and CD8^+ T cells = assay: Cytokine secretion potential of cultured T cells by Luminex, day 6 and day 13 (FIGS. 3A-3B)
Method: To evaluate this, we tested cytokine secretion potential of the manufactured T cells at the end of cell culture (day 6) and then again one week after ex vivo expansion after maximal co-stimulation (3/28 bead-to-T cell ratio, 3:1) and propagation in media devoid of any inhibitors. In FIGS. 3A-3B, CD4^+ and CD8^+ T cells were purified and cultured for 6-days either with or without a 16-hr interval of pre-incubation prior to co-stimulation (1:1 ratio of 3/28 beads-to-T cells). As indicated, temsirolimus was added at concentrations of either 1.0 or 0.1 μM; all cultures were supplemented with IFN-α (10,000 IU/ml) and daclizumab (50 μg/ml). On day 6 of culture, the resultant T cells were co-stimulated for 24 hr using a 3:1 ratio of 3/28 beads; the supernatant was tested for cytokine content by Luminex assay (results are described as pg per ml of cytokine secreted per million cells per 24 hr). […] N.A, abbreviation indicates not applicable (insufficient T cell yield to perform assay).

[2] = TREG-permissive culture: bead ratio 1:12, no IFN-α, exogenous IL-2 plus TGF-β
[3] = pre-incubation plus high-dose temsirolimus, compared with other conditions
[4] = temsirolimus 1.0 μM, after 24 hr maximal co-stimulation, with or without overnight pre-incubation

Molecule | phospho-RAPTOR ([1]; high-dose temsirolimus compared to low-dose temsirolimus or high-dose rapamycin) | autophagy marker p62 ([1]; pre-incubation, 1:3 beads, daclizumab, rapamycin 1 μM or temsirolimus 1.0 or 0.1) | FoxP3 expression (T cells; [2]) | expression of TBET (T cells; combination of temsirolimus and anti-IL-2 receptor monoclonal antibody) | FoxP3 expression (T cells; exogenous IL-2 added in combination with IFN-α) | T cell expression of FoxP3 (T cells; temsirolimus 1.0 μM with IFN-α, relative to day 0 input T cells) | day 13 T cell IFN-γ secretion (CD4^+ and CD8^+ T cells; [3]) | day 13 T cell TNF-α secretion (CD4^+ and CD8^+ T cells; [3]) | day 6 T cell cytokine secretion potential (CD4^+ and CD8^+ T cells; temsirolimus 0.1 μM) | day 6 T cell IFN-γ secretion (CD4^+ and CD8^+ T cells; [4]) | day 6 T cell TNF-α secretion (CD4^+ and CD8^+ T cells; [4]) | TBET expression (T cells; 50 μg/ml daclizumab compared with 5 μg/ml) | FoxP3 expression (T cells; IL-2 receptor blockade added to temsirolimus and IFN-α, 50 μg/ml more effective than 5 μg/ml)
CO[C@H]1C[C@@H]2CC[C@@H](C)[C@@](O)(O2)C(=O)C(=O)N2CCCC[C@H]2C(=O)O[C@H]([C@H](C)C[C@@H]2CC[C@@H](OC(=O)C(C)(CO)CO)[C@H](OC)C2)CC(=O)[C@H](C)/C=C(\C)[C@@H](O)[C@@H](OC)C(=O)[C@H](C)C[C@H](C)/C=C/C=C/C=C/1C [temsirolimus] | lower levels | autophagy could be realized | not effective | increased expression | not effective | reduced | highest | highest | only partially reduced | very low levels | very low levels | – | –
daclizumab: anti-IL-2 receptor monoclonal antibody (antibody, chains of the INN, looked up, V domains shown) VH: QVQLVQSGAEVKKPGSSVKVSCKASGYTFTSYRMHWVRQAPGQGLEWIGYINPSTGYTEYNQKFKDKATITADESTNTAYMELSSLRSEDTAVYYCARGGGVFDYWGQGTLVTVSS VL: DIQMTQSPSTLSASVGDRVTITCSASSSISYMHWYQQKPGKAPKLLIYTTSNLASGVPARFSGSGSGTEFTLTISSLQPDDFATYYCHQRSTYPLTFGQGTKVEVK | – | – | not effective | – | – | – | – | – | – | – | – | higher degree | further reduced
